In general, IC50 refers to the concentration at which inhibition is half-maximal.

The assay deals with G-protein coupled receptor 6 (Homo sapiens, UniProt P46095). As to the kind of experiment: cAMP assay A.1: This cell based assay measures the ability of compounds to inhibit the constitutive cAMP activity of GPR6 receptor expressed in CHO-K1 cells. CHO cells were stably expressed with GPR6 receptor, whose expression is controlled by a tetracycline inducable element. The cells were cultured in medium containing F12K, 10% FBS, 1% Penn/Strep, 200 ug/mL Hygromycin. GPR6 receptor expression was induced for 20 hrs with 1 μg/ml doxycycline (sigma D9891) in growth media. After addition of doxycycline cells were plated at a density of 250-500 cells per well in half-volume black clear bottom plates (Costar) and place in an incubator (37°, 5% C(O)2) for 20 hours prior to cAMP assays. Culture media was removed from cells and they were washed with 50 μL of Ringer's Buffer (MgCl2 0.047 mg/mL, NaH2PO4 0.18 mg/mL, Na2HPO4 0.1 mg/mL, KCl 0.34 mg/mL, NaHC(O)3 1.26 mg/mL, D-glucose 1.8 mg/mL, NaCl 7 mg/mL; pH=7.4). Compounds suspended in DMSO were diluted in Ringer's Buffer containing 0.5% fatty acid free BSA and incubated on cells for 45 min at 37° and 5% C(O)2. After incubation cells were incubated for 10 min at room temp with Eu-cAMP tracer solution from a Perkin Elmer Lance HTRF UltracAMP assay kit (TRF0264). Then ULight-anti-cAMP solution from the Lance HTRF kit was added and incubated on a shaker at room temp for 1 hour prior to HTRF detection in a BMG PolarStar Omega. […]. In general terms: Cyclic AMP is a second messenger, typically raised through Gs and lowered through Gi signalling.
Chain of G-protein coupled receptor 6 (P46095 whole entry): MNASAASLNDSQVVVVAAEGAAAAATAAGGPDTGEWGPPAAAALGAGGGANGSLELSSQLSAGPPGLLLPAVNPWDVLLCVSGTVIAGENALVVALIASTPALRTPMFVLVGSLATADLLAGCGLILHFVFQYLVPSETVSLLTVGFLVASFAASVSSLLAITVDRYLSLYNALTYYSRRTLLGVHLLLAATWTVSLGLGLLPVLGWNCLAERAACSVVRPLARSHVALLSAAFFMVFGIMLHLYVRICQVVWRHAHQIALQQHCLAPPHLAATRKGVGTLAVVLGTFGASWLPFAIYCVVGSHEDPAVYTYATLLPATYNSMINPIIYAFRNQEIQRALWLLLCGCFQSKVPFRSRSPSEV

As to `CN1CCc2nc(N3CCC(Oc4ccc(F)cc4F)CC3)c(NCC(F)F)nc2C1`, the IC50 is over 1000 µM.
The value for `CC(=O)N1CCc2nc(N3CCN(C(=O)OC(C)(C)C)CC3)c(NC(C)C)nc2C1` was over 1000 µM.

(Values after ChEMBL document CHEMBL5725509, “Substituted pyrido[3,4-b]pyrazines as GPR6 modulators” (2017).)
